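How tested: cells in 96-well plates exposed to compound for 48 hours at five concentrations. GI50: concentration for 50% inhibition of growth. TGI is the concentration that stops growth completely.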

The record followed here is PubChem BioAssay (NCI).

Common to all, as to assay: growth of human tumour cells (NCI), 48 h
Assay [1] deals with CAKI-1 renal.
The subject of assay [2] is CCRF-CEM leukemia.
Assay [3] has as its system EKVX NSCLC.
The subject of assay [4] is HCT-15 colon.
The subject of assay [5] is OVCAR-3 ovarian.
For assay [6], the system named is SK-OV-3 ovarian.
Assay [7] relates to SN12C renal.
In assay [8] the test system is SW-620 colon.

On to `COc1ccc(OC(=O)O[C@H]2[C@H](O[C@H]3[C@@H](O)COC(O[C@H]4C[C@H]5[C@@H]6CC=C7C[C@@H](O)CC[C@]7(C)[C@H]6CC[C@]5(C)[C@H]4[C@H](C)C(=O)CCC(C)C)[C@@H]3OC(C)=O)OC[C@@H](O)[C@@H]2O)cc1` (stereo partly specified), for which the GI50 is 0.0281 µM in assay [1]; less than 0.01 µM in assay [2]; 1.64 µM in assay [3]; 1.29 µM in assay [4]; 10.7 µM in assay [5]; 0.329 µM in assay [6]. Further, the GI50 in assay [7] was 11.2 µM; in assay [8], 0.0295 µM. In addition, the TGI in assay [1] worked out at 1.63 µM; in assay [2] it was 0.145 µM; in assay [3], 19.6 µM; in assay [4], 11.4 µM; in assay [5], 24.5 µM; in assay [6] it was 15.3 µM. The TGI turned out to be 23.8 µM in assay [7] and 1.13 µM in assay [8].

For `CCOC(=O)c1c(C)n(Cc2ccc(OC)cc2)c2c1cc(O)c1[nH]c3c(c12)CCCC3`, the GI50 is 16.4 µM in assay [1]; 4.22 µM in assay [2]; 4.9 µM in assay [3]; 3.44 µM in assay [4]; 3.73 µM in assay [5]; 9.47 µM in assay [6]. In addition, the GI50 in assay [7] is 7.79 µM; in assay [8] it was 3.72 µM. Besides, the TGI is 54.9 µM in assay [1]; more than 100 µM in assay [2]; 52.5 µM in assay [3]; 13.2 µM in assay [4]; 18.6 µM in assay [5]; 51.3 µM in assay [6]. In addition, the figures for the TGI in assay [7] and in assay [8] were 28.9 µM and 13.9 µM, respectively.

For the compound `CNC1C(=O)C(C)C(O)(C(CC(C)C(O)/C=C/C=C/CNC(=O)C(C)(C)C(O)\C(C)=C/C=C\C=C\Cc2cnc(C)o2)OC)C12C(=O)OC2COC` (stereo unspecified) (tested in a mixture with another compound), the TGI is more than 100 µM in assay [1]; 38.5 µM in assay [2]; more than 64.4 µM in assay [3]; more than 63.1 µM in assay [4]; 34.6 µM in assay [5]; more than 100 µM in assay [6]. Besides, the figures for the TGI in assay [7] and in assay [8] were more than 82.7 µM and more than 46.9 µM, respectively.

For the compound `C=C1C(=O)O[C@H]2[C@H]1CC/C(COC(=O)/C=C\C(=O)NCc1ccc(Cn3c(=O)sn(-c4ccc(C#N)cc4)c3=O)cc1)=C\CC[C@@]1(C)O[C@@H]21`, the GI50 in assay [1] is 0.354 µM; in assay [2], 0.2 µM; in assay [3], 0.797 µM; in assay [4] it was 0.505 µM; in assay [5], 0.306 µM; in assay [6] it was 4.02 µM. For the same compound, the GI50 in assay [7] was 0.671 µM; in assay [8], 0.353 µM. The TGI in assay [1] was 1.08 µM; in assay [2], 17.9 µM; in assay [3] it was 1.57 µM; in assay [4], 1.95 µM; in assay [5], 0.953 µM; in assay [6], 10.5 µM. Moreover, the TGI in assay [7] is 1.57 µM; in assay [8], 1.22 µM.

Turning to `COc1ccc(-n2cc(-c3cc(OC)c(OC)c(OC)c3)[nH]c2=S)cc1OC`, the GI50 in assay [1], in assay [2], in assay [3], in assay [4], in assay [5] and in assay [6] was more than 100 µM throughout. Besides, the GI50 in assay [7] and in assay [8] was more than 100 µM throughout. Besides, the TGI in assay [1], in assay [2], in assay [3], in assay [4], in assay [5] and in assay [6] was more than 100 µM in each case. The TGI in assay [7] and in assay [8] was more than 100 µM throughout.

Consider `COc1ccc(C2CC(=O)c3c(OC)cc(OC)cc3O2)cc1` (stereo unspecified), for which the GI50 is more than 100 µM in assay [1]; 4.2 µM in assay [2]; more than 100 µM in assay [3]; more than 100 µM in assay [4]; more than 100 µM in assay [5]; more than 100 µM in assay [6]. Also, the GI50 in assay [7] and in assay [8] was more than 100 µM in each case. The TGI in assay [1], in assay [2], in assay [3], in assay [4], in assay [5] and in assay [6] was more than 100 µM each time. Also, the TGI in assay [7] and in assay [8] was more than 100 µM throughout.

With `O=C(O)C1C(C(=O)O)C(C(=O)O)C1C(=O)O` (stereo unspecified), the TGI in assay [1], in assay [2], in assay [3], in assay [4], in assay [5] and in assay [6] was more than 100 µM throughout. Further, the TGI in assay [7] and in assay [8] was more than 100 µM throughout.

`C[C@]12CC[C@@H]3c4ccc(O)cc4C[C@@H](CCCCCCCCCS(=O)CCCC(F)(F)C(F)(F)F)[C@H]3[C@@H]1CC[C@@H]2O` (stereo partly specified): the GI50 in assay [1], in assay [2], in assay [3], in assay [4], in assay [5] and in assay [6] was more than 100 µM in each case. Besides, the GI50 in assay [7] and in assay [8] was more than 100 µM in each case. Further, the TGI in assay [1], in assay [2], in assay [3], in assay [4], in assay [5] and in assay [6] was more than 100 µM each time. Further, the TGI in assay [7] and in assay [8] was more than 100 µM each time.

Consider `COc1ccc2cc(C(=O)/C=C/c3cccc(OC)c3OC)ccc2c1`, for which the GI50 in assay [1] was 11.6 µM; in assay [2], 5.46 µM; in assay [3], 17.9 µM; in assay [4], 3.53 µM; in assay [5] it was 19 µM; in assay [6] it was 23.7 µM. Further, the GI50 in assay [7] was 3.83 µM; in assay [8], 9.53 µM. In addition, the TGI in assay [1] is 31.9 µM; in assay [2], more than 100 µM; in assay [3], 36.7 µM; in assay [4], 15.4 µM; in assay [5], 35.5 µM; in assay [6], 45.9 µM. Further, the TGI in assay [7] was determined as 14 µM; in assay [8], 29.1 µM.

In the case of `CC(C)(C)C1=CC(=CC=C2C=CN(CCCCCCCCCCCO)C=C2)C=C(C(C)(C)C)C1=O`, the TGI is 6.7 µM in assay [1]; 11.7 µM in assay [2]; 5.61 µM in assay [3]; more than 100 µM in assay [4]; 2.87 µM in assay [5]; 5.81 µM in assay [6]. Also, the TGI came to 2.73 µM in assay [7] and 3.08 µM in assay [8].
